Assay results reported in patent publication US9517265B2, “Methods for the prevention and/or treatment of memory impairment” (The Governing Council of the University of Toronto, priority 2010, dated 2016).
“Also recorded” adds a separate entry of the source. Read-outs that look alike come from different tables or passages of the source.

Tests used:
α5GABAARs [1] = biological target: T1, α5GABAARs (Mus musculus, UniProt P22723+Q8BHJ7); assay: Tonic inhibitory current, whole cell voltage-clamp in cultured hippocampal neurons; format: cell-based, mice; design: endogenous in cells; host or cells: primary embryonic mouse hippocampal neurons, alone or co-cultured with cortical microglia; settings: for effect on the tonic current (in words): cultured hippocampal neurons; for amplitude of the tonic current: TNF-α 100 ng/ml, n=10, IL-6 10 ng/ml, n=5
T1 sequence (Q8BHJ7 32-463 limits assumed): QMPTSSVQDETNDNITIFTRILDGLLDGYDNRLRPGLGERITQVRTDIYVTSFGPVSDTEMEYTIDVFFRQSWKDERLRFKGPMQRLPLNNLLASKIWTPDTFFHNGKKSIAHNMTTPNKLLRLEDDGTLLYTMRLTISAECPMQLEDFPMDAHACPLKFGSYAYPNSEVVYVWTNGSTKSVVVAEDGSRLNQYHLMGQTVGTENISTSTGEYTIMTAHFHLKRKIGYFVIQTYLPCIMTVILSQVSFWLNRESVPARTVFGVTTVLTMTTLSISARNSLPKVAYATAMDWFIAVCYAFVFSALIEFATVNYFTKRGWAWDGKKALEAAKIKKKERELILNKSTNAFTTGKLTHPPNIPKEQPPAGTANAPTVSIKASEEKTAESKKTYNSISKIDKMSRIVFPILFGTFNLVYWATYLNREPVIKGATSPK
T1 sequence (P63080 26-473 partner): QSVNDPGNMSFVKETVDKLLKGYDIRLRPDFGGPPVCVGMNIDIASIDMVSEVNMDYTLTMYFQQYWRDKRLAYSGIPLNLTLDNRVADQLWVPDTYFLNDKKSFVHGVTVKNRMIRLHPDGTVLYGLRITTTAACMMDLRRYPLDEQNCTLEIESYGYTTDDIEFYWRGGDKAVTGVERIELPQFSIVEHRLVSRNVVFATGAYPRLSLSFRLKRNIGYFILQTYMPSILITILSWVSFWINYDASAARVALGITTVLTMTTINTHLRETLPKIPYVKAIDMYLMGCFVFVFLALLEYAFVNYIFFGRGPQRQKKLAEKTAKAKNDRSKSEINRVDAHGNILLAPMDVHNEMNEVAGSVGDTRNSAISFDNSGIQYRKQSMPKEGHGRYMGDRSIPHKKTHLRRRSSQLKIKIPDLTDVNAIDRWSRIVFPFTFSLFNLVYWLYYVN
T1 sequence (P22723 39-474): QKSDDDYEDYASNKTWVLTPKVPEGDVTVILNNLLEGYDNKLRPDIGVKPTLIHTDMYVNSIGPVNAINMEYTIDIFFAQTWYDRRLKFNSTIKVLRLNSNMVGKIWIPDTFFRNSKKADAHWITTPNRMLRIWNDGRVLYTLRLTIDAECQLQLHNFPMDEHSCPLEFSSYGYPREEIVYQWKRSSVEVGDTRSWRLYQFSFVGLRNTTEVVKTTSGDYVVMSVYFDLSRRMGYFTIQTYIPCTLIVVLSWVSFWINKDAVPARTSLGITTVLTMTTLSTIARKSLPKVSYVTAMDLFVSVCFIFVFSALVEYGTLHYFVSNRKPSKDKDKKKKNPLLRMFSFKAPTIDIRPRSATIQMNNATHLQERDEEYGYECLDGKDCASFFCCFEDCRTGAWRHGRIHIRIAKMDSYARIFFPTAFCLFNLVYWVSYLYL

α5GABAARs [2] = biological target: T2, α5GABAARs (Mus musculus, UniProt P22723+P63080+Q8BHJ7); settings: cited from earlier work
T2 construct: host or cells: neurons (mIPSCs and tonic current recorded); preparation not described in this paragraph
T2 sequence (Q8BHJ7 32-463 limits assumed): as the sequence (Q8BHJ7 32-463 limits assumed) above
T2 sequence (P63080 26-473): as the sequence (P63080 26-473 partner) above
T2 sequence (P22723 39-474): as the sequence (P22723 39-474) above

[3] = rats; cited from earlier work
α5GABAA receptors [4] = biological target: α5GABAA receptors (Mus musculus, UniProt P22723+Q8BHJ7); settings: for effect of the anesthetic on recognition memory, wild-type mice (in words): 24 h after anesthesia
Chain of α5GABAA receptors (Mus musculus, UniProt P22723+Q8BHJ7) (Q8BHJ7 32-463 limits assumed): as the sequence (Q8BHJ7 32-463 limits assumed) above
Chain of α5GABAA receptors (Mus musculus, UniProt P22723+Q8BHJ7) (P63080 26-473 partner): as the sequence (P63080 26-473 partner) above
Chain of α5GABAA receptors (Mus musculus, UniProt P22723+Q8BHJ7) (P22723 39-474): as the sequence (P22723 39-474) above

[5] = in vivo; cited from earlier work
postsynaptic GABAARs = assay: Whole-cell currents evoked by exogenous GABA (10 μM) in cultured hippocampal neurons; format: cell-based, mice
synaptic GABAARs = assay: Miniature inhibitory postsynaptic currents (mIPSCs) in cultured hippocampal neurons; format: cell-based, mice
α5GABAA receptors [6] = biological target: T3, α5GABAA receptors (Homo sapiens, UniProt P18507+P31644); design: host or cells: human volunteers (brain in vivo); settings: human volunteers, given before ethanol; cited from earlier work
T3 sequence (P31644 32-462): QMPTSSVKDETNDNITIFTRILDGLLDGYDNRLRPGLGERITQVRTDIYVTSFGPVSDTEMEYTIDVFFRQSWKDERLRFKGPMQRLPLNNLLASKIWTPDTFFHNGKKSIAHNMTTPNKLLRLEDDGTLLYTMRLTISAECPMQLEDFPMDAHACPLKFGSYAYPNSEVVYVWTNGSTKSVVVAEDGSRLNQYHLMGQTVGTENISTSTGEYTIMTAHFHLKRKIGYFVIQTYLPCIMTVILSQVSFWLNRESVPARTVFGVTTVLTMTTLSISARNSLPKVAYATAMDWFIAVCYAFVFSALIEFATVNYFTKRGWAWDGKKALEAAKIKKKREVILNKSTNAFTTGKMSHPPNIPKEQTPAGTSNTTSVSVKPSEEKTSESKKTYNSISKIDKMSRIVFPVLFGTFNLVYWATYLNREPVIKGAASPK
T3 sequence (P28472 26-473 partner): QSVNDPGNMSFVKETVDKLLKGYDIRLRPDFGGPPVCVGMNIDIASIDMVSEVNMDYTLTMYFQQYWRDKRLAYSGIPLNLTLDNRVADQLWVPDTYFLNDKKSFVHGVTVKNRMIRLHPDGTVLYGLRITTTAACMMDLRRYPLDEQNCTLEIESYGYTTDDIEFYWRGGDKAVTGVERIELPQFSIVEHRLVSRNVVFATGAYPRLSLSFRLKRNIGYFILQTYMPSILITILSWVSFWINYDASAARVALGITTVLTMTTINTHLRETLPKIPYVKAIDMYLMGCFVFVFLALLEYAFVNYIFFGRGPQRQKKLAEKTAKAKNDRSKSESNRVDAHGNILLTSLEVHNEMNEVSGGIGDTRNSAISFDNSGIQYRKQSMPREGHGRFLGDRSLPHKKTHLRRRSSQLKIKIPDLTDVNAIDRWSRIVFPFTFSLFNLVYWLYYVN
T3 sequence (P18507 40-467 limits assumed): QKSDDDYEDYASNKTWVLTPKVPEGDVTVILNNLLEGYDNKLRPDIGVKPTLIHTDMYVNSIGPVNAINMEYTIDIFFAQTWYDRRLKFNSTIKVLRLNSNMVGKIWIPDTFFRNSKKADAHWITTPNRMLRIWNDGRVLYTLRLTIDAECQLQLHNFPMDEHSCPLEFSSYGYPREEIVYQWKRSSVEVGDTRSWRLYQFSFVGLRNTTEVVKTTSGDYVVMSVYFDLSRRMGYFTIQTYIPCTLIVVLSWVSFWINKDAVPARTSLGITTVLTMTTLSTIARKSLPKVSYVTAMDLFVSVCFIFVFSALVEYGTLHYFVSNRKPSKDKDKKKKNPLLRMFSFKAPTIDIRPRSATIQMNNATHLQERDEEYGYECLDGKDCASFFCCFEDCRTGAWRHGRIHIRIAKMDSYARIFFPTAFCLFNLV

α5GABAARs [7] = biological target: T1, α5GABAARs; settings: WT mice, etomidate or etomidate plus L-655,708 30 min prior to training; cited from earlier work
[8] = pretreatment before tibial osteotomy; cited from earlier work
α5GABAARs [9] = assay: Tonic current in hippocampal neuron-microglia co-culture; format: cell-based, mice; settings: LPS 100 ng ml^−1 overnight; IL-1ra 250 ng ml^−1
α5GABAARs [10] = biological target: T1, α5GABAARs; assay: Long-term potentiation of field postsynaptic potentials in hippocampal slices; format: cell-based, mice; design: endogenous in cells; host or cells: primary embryonic mouse hippocampal neurons, alone or co-cultured with cortical microglia
Procedure: IL-1β could influence any of several molecular processes that regulate synaptic plasticity^50. The key question is whether α5GABAARs underlie the predominant effect of IL-1β on plasticity. Our working hypothesis is that IL-1β acts via α5GABAARs to inhibit LTP. […] After 3 hours, the mice were sacrificed and the hippocampi harvested. Extracellular field recordings were obtained with a recording electrode placed in the stratum radiatum of the CA1 subfield.
The long-term potentiation (LTP) of evoked field postsynaptic potentials (fPSPs) was studied using previously described methods^29. […] Baseline stimulation frequency was 0.05 Hz. LTP was induced in the slices with theta burst stimulation (TBS), which consisted of 10 stimulus trains at 5 Hz, with each train consisting of 4 pulses at 100 Hz. The fPSPs were monitored for 10 min before TBS and for 60 min after TBS.

## COc1ccc(-c2ccc(=N)n(CCCC(=O)O)n2)cc1 [gabazine]
α5GABAARs [1]
  effect on the tonic current (in words): selectively inhibits the synaptic but not tonic current

## Cc1ncc2n1-c1ccc(Cl)cc1C(c1ccccc1F)=NC2 [Midazolam, midazolam]
α5GABAARs [2]
  increase in charge transfer for the tonic current relative to that for mIPSCs: 7-21 fold

## CCc1nc(-c2ccc(OC)cc2)[nH]c1-c1ccncc1 [SB202,474]
α5GABAARs [1]
  effect on the tonic current (in words): had no effect on the tonic current

## FCOC(C(F)(F)F)C(F)(F)F [sevoflurane]
[3]
  threshold concentration that impaired memory performance during fear conditioning: 0.3%
α5GABAA receptors [4]
  effect of the anesthetic on recognition memory, wild-type mice (in words): did not learn the task
α5GABAA receptors [4]; listed as Sevoflurane
  effect of the anesthetic on recognition memory, wild-type mice (in words): caused memory deficits 24 h after anesthesia
α5GABAA receptors [4]; 24 h after sevoflurane
  exploratory behavior during the training phase: 23.45 ± 3.88 s
  time with familiar object: 13.13±1.95
  time with novel object: 15.41±2.25
α5GABAA receptors [4]; 24 h after sevoflurane 2.3% 1 h
  discrimination ratio, short-term memory: 0.53±0.03

## CNC(=O)c1cc2c(cn1)[nH]c1ccccc12 [FG 7142]
[5]
  convulsant / anxiogenic properties (in words): have epileptogenic and anxiogenic properties

## FC(F)OC(F)C(F)(F)F (stereo not shown) [desflurane]
[3]
  threshold concentration that impaired memory performance during fear conditioning: 0.44%

## TNF-α
α5GABAARs [1]
  amplitude of the tonic current: 104.1%±12.1%
  effect on the tonic current (in words): did not modify the tonic conductance in hippocampal neurons

## C[S+]([O-])c1ccc(-c2nc(-c3ccncc3)c(-c3ccc(F)cc3)[nH]2)cc1 (stereo not shown) [SB203,580]
α5GABAARs [1]; IL-1β 20 ng ml^−1 20 min with or without SB203,580 20 μM 30 min
  tonic current density: 1.0±0.1 pA pF^−1
α5GABAARs [1]
  effect on the tonic current (in words): completely blocked the IL-1β-induced increase in the tonic current
Postsynaptic GABAARs
  effect on IL-1β inhibition of the GABA-evoked peak current (in words): had no effect on inhibition of the GABA-evoked peak current by IL-1β
Synaptic GABAARs
  effect on mIPSCs (in words): did not modify IL-1β inhibition of miniature IPSCs

## Cc1cc(-c2nnc3c4ccccc4c(OCc4cn(C)nn4)nn23)no1 [α5IA]
α5GABAA receptors [6]
  ethanol-induced memory impairment (in words): reversed memory impairment for word-list learning after the ingestion of ethanol; also recorded: attenuated ethanol-induced impairment of word recall

## FC(F)(F)C(Cl)Br (stereo not shown) [halothane]
[3]
  threshold concentration that impaired memory performance during fear conditioning: 0.3%

## IL-6: pro-inflammatory cytokine
α5GABAARs [1]
  amplitude of the tonic current: 96.3%±6.0%
  effect on the tonic current (in words): did not modify the tonic conductance in hippocampal neurons

## CCOC(=O)c1cncn1[C@H](C)c1ccccc1 [etomidate]
α5GABAARs [1]
  effect on the tonic current (in words): selectively potentiate the tonic current; also recorded: increased the amplitude of the tonic current; also recorded: produced a supra-additive increase in the tonic current
α5GABAARs [7]
  contextual fear memory, freezing score (in words): reduced the freezing score

## CC(C)c1cccc(C(C)C)c1O [propofol]
α5GABAARs [2]
  increase in charge transfer for the tonic current relative to that for mIPSCs: 6-33 fold

## IL-1ra: naturally occurring IL-1 receptor antagonist that blocks the type 1 IL-1 receptor
α5GABAARs [1]
  effect on the tonic current (in words): completely blocked by IL-1ra; also recorded: alone had no effect on the tonic or synaptic currents; also recorded: completely blocked both the increase in tonic current and the reduction of synaptic current by IL-1β
Postsynaptic GABAARs
  effect on IL-1β inhibition of the GABA-evoked peak current (in words): this effect could be blocked by IL-1ra
[8]
  postsurgical memory deficits (in words): no memory deficits were detected
α5GABAARs [9]
  effect on the tonic current (in words): fully reversed the enhancement of the tonic current
α5GABAARs [10]
  effect on LTP (in words): This inhibition of LTP was abolished by incubating the slices with IL-1ra
α5GABAARs [10]; slices from LPS-treated WT mice incubated with IL-1ra 100 ng ml^−1 for 1 h, n=10
  LTP, slope of fPSPs: 126.2%±3.9%
Synaptic GABAARs
  effect on mIPSCs (in words): this effect could be blocked by IL-1ra

## O=c1cc(N2CCOCC2)oc2c(-c3ccccc3)cccc12 [LY294,002]
α5GABAARs [1]
  effect on the tonic current (in words): had no effect on the IL-1β-induced increase in tonic current
Postsynaptic GABAARs
  effect on IL-1β inhibition of the GABA-evoked peak current (in words): completely prevented IL-1β-dependent inhibition of the GABA-evoked peak current; also recorded: alone had no effect on the GABA-evoked peak responses
